Data as given in US10710978B2, “STK4 inhibitors for treatment of hematologic malignancies” (Dana-Farber Cancer Institute, Inc., priority 2015, dated 2020).
Read-outs that look alike come from different tables or passages of the source.

Key:
Assay in all cases: KiNativ assay
Type in all cases: binding
ACK = ACK (Homo sapiens (Human), UniProt Q07912); settings: H929 live cell
Protocol: (§1) Biochemical IC50s of the compounds of the present disclosure against various kinases were measured in a KiNativ assay. Compounds were screened in duplicate at 10 μM in H929 live cell. IC50 was measured via Mass spectroscopy (MS).

PAN3 = PAN3 (Homo sapiens (Human), UniProt Q58A45); settings: H929 live cell
Protocol: as §1

CaMKK2 = CaMKK2 (Homo sapiens (Human), UniProt Q96RR4); settings: H929 live cell
Protocol: as §1

PKCi = PKCi (Homo sapiens (Human), UniProt P41743); settings: H929 live cell
Protocol: as §1

MLK3 = MLK3 (Homo sapiens (Human), UniProt Q16584); settings: H929 live cell
Protocol: as §1

p38a = p38a (Homo sapiens (Human), UniProt Q16539); settings: H929 live cell, range class, read-out: % inhibition
How it was run: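 H929 live-cell screen at 10 μM, run in duplicate. Kinase occupancy was assessed via the KiNativ platform, with IC50 determined by mass spectrometry.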

PKD3 = PKD3 (Homo sapiens (Human), UniProt O94806); settings: H929 live cell
Protocol: as §1

PIK3CB = PIK3CB (Homo sapiens (Human), UniProt P42338); settings: H929 live cell
Protocol: as §1

AurB = AurB (Homo sapiens (Human), UniProt Q96GD4); settings: H929 live cell
Protocol: as §1

PEK = PEK (Homo sapiens (Human), UniProt Q9NZJ5); settings: H929 live cell
Protocol: as §1

MAP2K4 = MAP2K4 (Homo sapiens (Human), UniProt P45985); settings: H929 live cell
Protocol: as §1

eEF2K = eEF2K (Homo sapiens (Human), UniProt O00418); settings: H929 live cell
Protocol: as §1

STLK3 = STLK3 (Homo sapiens (Human), UniProt Q9UEW8); settings: H929 live cell
Protocol: as §1

FRAP = FRAP (Homo sapiens (Human), UniProt P42345); settings: H929 live cell
Protocol: as §1

AKT1 = AKT1 (Homo sapiens (Human), UniProt P31749); settings: H929 live cell
Protocol: as §1

BRAF = BRAF (Homo sapiens (Human), UniProt P15056); settings: H929 live cell
Protocol: as §1

Erk2 = Erk2 (Homo sapiens (Human), UniProt P28482); settings: H929 live cell
Protocol: as §1

PIK3CG = PIK3CG (Homo sapiens (Human), UniProt P48736); settings: H929 live cell
Protocol: as §1

MAP3K2 = MAP3K2 (Homo sapiens (Human), UniProt Q9Y2U5); settings: H929 live cell
Protocol: as §1

CDK7 = CDK7 (Homo sapiens (Human), UniProt P50613); settings: H929 live cell
Protocol: as §1

PKCz = PKCz (Homo sapiens (Human), UniProt Q05513); settings: H929 live cell
Protocol: as §1

GCK = GCK (Homo sapiens (Human), UniProt Q12851); settings: H929 live cell
Protocol: as §1

MST4 = settings: H929 live cell
Protocol: as §1

CaMK2g = CaMK2g (Homo sapiens (Human), UniProt Q13555); settings: H929 live cell
Protocol: as §1

PRP4 = PRP4 (Homo sapiens (Human), UniProt Q13523); settings: H929 live cell
Protocol: as §1

SMG1 = SMG1 (Homo sapiens (Human), UniProt Q96Q15); settings: H929 live cell
Protocol: as §1

MST1, MST2 = settings: H929 live cell
Protocol: as §1

RSKL1 = RSKL1 (Homo sapiens (Human), UniProt Q96S38); settings: H929 live cell
Protocol: as §1

PKR = PKR (Homo sapiens (Human), UniProt P19525); settings: H929 live cell
Protocol: as §1

MARK1, MARK2 = settings: H929 live cell
Protocol: as §1

RSK2 domain2 = RSK2 domain2 (Homo sapiens (Human), UniProt P51812); settings: H929 live cell
Protocol: as §1

MARK2, MARK3 = settings: H929 live cell
Protocol: as §1

AurA, AurB, AurC = settings: H929 live cell
Protocol: as §1

GSK3B = GSK3B (Homo sapiens (Human), UniProt P49841); settings: H929 live cell
Protocol: as §1

[1] = range class, read-out: % inhibition

Sequence of RSKL1 (Q96S38 whole entry): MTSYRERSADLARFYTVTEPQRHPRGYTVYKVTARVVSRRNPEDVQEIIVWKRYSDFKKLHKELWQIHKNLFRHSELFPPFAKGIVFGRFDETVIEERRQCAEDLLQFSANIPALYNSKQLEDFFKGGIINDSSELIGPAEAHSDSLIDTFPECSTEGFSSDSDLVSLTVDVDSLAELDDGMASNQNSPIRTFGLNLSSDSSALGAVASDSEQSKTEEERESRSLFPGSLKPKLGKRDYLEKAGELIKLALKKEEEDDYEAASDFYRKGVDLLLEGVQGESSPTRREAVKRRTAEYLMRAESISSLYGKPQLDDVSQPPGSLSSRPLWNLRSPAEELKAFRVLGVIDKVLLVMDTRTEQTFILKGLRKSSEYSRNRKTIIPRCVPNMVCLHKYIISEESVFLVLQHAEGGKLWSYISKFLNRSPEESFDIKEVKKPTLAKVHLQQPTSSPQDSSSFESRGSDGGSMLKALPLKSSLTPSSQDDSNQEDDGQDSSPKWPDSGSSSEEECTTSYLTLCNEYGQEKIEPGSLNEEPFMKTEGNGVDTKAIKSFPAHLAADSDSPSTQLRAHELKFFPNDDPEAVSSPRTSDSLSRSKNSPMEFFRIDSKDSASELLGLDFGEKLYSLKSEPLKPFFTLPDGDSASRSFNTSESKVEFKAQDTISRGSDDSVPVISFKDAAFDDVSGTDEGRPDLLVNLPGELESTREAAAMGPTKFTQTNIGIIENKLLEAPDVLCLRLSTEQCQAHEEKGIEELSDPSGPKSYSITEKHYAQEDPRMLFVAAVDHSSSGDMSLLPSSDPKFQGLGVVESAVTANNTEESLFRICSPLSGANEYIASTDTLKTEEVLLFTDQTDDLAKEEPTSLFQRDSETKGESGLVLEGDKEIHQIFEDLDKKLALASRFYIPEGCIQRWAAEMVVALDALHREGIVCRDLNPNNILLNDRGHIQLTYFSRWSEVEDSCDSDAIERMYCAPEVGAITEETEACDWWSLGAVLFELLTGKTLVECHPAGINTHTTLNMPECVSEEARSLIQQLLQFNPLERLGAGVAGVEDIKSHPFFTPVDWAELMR
Sequence of Erk2 (P28482 whole entry): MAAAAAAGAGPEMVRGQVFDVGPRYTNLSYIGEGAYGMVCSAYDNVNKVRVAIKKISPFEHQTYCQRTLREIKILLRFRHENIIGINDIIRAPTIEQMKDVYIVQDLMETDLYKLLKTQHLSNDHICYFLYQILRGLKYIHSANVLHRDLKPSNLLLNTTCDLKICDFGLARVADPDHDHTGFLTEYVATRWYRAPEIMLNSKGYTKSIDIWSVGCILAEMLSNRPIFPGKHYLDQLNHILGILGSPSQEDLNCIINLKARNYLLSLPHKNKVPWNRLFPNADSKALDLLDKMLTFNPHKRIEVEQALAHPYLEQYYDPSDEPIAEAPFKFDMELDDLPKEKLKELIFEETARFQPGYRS
Sequence of PAN3 (Q58A45 whole entry): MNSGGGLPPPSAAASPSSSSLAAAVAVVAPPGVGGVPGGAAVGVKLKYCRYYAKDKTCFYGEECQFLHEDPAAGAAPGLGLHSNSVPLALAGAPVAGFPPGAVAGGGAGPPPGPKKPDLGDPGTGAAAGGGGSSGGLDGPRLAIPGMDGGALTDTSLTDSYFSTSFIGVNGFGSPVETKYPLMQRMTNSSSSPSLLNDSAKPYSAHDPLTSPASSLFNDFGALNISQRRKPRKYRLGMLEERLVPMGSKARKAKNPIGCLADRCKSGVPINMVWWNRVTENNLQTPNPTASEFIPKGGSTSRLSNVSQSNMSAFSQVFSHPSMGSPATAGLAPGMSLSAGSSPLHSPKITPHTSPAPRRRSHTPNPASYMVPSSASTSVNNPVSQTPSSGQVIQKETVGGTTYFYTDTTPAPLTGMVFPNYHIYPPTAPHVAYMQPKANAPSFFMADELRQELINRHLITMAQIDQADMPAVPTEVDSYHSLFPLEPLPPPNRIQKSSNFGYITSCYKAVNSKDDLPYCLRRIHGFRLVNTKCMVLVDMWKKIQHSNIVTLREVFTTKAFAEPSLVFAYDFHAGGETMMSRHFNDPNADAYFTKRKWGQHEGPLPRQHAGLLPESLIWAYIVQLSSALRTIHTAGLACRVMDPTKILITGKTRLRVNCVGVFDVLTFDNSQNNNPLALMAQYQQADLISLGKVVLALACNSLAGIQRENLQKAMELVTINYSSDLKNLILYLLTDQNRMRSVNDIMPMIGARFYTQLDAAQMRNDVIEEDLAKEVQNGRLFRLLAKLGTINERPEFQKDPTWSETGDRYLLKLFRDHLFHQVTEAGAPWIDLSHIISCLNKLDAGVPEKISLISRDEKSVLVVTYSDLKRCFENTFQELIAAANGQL
Sequence of PIK3CG (P48736 whole entry): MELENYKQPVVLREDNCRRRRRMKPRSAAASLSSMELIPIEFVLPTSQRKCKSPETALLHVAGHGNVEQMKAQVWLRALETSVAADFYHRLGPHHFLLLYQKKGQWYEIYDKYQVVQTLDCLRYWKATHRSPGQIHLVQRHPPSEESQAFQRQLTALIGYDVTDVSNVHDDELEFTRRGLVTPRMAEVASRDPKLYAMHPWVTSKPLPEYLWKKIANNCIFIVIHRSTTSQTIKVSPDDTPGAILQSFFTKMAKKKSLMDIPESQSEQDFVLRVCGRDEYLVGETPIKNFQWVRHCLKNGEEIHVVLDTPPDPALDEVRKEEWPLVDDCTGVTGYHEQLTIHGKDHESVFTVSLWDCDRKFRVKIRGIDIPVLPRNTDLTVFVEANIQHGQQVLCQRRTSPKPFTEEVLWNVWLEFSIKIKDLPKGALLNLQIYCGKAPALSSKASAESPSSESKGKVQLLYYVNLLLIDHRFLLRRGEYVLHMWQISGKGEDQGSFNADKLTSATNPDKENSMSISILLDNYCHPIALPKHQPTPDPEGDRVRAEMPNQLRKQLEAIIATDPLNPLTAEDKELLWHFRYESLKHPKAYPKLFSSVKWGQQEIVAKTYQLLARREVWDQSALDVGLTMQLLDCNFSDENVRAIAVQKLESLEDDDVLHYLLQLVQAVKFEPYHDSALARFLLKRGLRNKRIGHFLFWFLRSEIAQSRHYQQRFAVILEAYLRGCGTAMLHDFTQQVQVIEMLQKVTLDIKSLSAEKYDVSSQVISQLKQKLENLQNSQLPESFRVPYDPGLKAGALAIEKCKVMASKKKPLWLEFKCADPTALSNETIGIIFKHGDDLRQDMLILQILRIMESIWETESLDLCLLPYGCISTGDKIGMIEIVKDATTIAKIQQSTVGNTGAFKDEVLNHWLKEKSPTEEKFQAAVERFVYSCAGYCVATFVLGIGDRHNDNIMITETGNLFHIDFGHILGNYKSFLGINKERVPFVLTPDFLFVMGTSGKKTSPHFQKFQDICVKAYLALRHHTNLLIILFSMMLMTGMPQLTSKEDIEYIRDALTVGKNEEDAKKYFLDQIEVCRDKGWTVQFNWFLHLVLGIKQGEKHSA
Sequence of PKCz (Q05513 whole entry): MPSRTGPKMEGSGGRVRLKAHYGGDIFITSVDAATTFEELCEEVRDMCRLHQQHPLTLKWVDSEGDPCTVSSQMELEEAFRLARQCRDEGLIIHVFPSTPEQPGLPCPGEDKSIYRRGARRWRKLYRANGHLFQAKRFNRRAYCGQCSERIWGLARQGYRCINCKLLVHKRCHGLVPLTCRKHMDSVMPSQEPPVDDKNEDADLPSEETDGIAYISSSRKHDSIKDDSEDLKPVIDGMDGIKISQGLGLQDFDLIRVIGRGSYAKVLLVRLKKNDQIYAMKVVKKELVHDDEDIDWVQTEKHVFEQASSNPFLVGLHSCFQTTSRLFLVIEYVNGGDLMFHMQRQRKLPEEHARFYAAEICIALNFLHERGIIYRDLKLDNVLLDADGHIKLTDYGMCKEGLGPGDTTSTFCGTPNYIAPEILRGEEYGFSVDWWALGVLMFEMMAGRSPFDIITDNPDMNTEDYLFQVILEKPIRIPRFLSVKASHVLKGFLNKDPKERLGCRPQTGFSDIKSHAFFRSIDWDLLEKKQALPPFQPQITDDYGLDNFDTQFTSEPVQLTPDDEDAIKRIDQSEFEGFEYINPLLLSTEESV
Sequence of CaMK2g (Q13555 whole entry): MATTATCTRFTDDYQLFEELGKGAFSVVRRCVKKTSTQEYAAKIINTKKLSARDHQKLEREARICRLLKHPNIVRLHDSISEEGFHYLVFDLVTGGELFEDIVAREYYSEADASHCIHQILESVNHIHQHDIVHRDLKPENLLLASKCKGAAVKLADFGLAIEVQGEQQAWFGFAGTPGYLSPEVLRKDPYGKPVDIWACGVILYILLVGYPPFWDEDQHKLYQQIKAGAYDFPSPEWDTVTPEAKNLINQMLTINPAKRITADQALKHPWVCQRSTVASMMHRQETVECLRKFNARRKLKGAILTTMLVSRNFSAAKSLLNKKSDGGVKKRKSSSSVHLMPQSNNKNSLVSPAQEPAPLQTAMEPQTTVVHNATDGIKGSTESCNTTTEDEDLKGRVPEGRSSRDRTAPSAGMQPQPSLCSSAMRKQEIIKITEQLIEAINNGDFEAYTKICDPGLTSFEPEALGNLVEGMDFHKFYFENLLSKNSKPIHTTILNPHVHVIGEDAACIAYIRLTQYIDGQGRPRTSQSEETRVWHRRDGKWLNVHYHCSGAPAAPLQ
Sequence of AurB (Q96GD4 whole entry): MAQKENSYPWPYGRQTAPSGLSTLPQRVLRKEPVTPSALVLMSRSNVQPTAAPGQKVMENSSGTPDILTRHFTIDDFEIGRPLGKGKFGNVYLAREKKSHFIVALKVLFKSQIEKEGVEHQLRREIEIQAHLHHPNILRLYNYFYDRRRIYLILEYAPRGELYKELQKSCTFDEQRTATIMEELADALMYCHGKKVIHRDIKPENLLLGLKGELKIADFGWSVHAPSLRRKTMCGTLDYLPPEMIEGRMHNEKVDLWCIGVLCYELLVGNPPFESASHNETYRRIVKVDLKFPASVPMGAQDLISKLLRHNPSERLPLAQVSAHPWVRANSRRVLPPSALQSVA

**Q.** Which results are given for `Nc1ncc(-c2ccc(NS(=O)(=O)C3CC3)cc2F)cc1-c1ccc2c(c1)CCNC2=O` [Compound I-51, N-(4-(6-amino-5-(1-oxo-1,2,3,4-tetrahydroisoquinolin-6-yl)pyridin-3-yl)-3-fluorophenyl) cyclopropanesulfonamide]?
**A.** inhibition at 10 µM (ACK; [1]): 0%; inhibition at 10 µM (ACK; read-out: inhibition (10 μM)): -39%; inhibition at 10 µM (PAN3; [1]): 0%; inhibition at 10 µM (PAN3; read-out: inhibition (10 μM)): -39.1%; inhibition at 10 µM (CaMKK2; [1]): 75 to 90%; inhibition at 10 µM (CaMKK2; read-out: inhibition (10 μM)): 78.5%; inhibition at 10 µM (PKCi; [1]): 0%; inhibition at 10 µM (PKCi; read-out: inhibition (10 μM)): -49.1%; inhibition at 10 µM (MLK3; [1]): 35 to 40%; inhibition at 10 µM (MLK3; read-out: inhibition (10 μM)): 42.3%; inhibition at 10 µM (p38a): 0%; inhibition at 10 µM (PKD3; [1]): 50 to 75%; inhibition at 10 µM (PKD3; read-out: inhibition (10 μM)): 74.8%; inhibition at 10 µM (PIK3CB; [1]): 0%; inhibition at 10 µM (PIK3CB; read-out: inhibition (10 μM)): 7.2%; inhibition at 10 µM (AurB; [1]): 0%; inhibition at 10 µM (AurB; read-out: inhibition (10 μM)): 31.8%; inhibition at 10 µM (PEK; [1]): 0%; inhibition at 10 µM (PEK; read-out: inhibition (10 μM)): -16.3%; inhibition at 10 µM (MAP2K4; [1]): 35 to 40%; inhibition at 10 µM (MAP2K4; read-out: inhibition (10 μM)): 44.2%; inhibition at 10 µM (eEF2K; [1]): 0%; inhibition at 10 µM (eEF2K; read-out: inhibition (10 μM)): 7.7%; inhibition at 10 µM (STLK3; [1]): 0%; inhibition at 10 µM (STLK3; read-out: inhibition (10 μM)): -5%; inhibition at 10 µM (FRAP; [1]): 0%; inhibition at 10 µM (FRAP; read-out: inhibition (10 μM)): 25.1%; inhibition at 10 µM (AKT1; [1]): 0%; inhibition at 10 µM (AKT1; read-out: inhibition (10 μM)): -15.2%; inhibition at 10 µM (BRAF; [1]): 0%; inhibition at 10 µM (BRAF; read-out: inhibition (10 μM)): -41.8%; inhibition at 10 µM (Erk2; [1]): 0%; inhibition at 10 µM (Erk2; read-out: inhibition (10 μM)): 31.8%; inhibition at 10 µM (PIK3CG; [1]): 0%; inhibition at 10 µM (PIK3CG; read-out: inhibition (10 μM)): -146%; inhibition at 10 µM (MAP3K2; [1]): 0%; inhibition at 10 µM (MAP3K2; read-out: inhibition (10 μM)): -11.2%; inhibition at 10 µM (CDK7; [1]): 0%; inhibition at 10 µM (CDK7; read-out: inhibition (10 μM)): 17.4%; inhibition at 10 µM (PKCz; [1]): 0%; inhibition at 10 µM (PKCz; read-out: inhibition (10 μM)): 2.1%; inhibition at 10 µM (GCK; [1]): > 90%; inhibition at 10 µM (GCK; read-out: inhibition (10 μM)): 93.9%; % inhibition (MST4; 10 μM, range class): 0.0%; inhibition (10 μM) (MST4): 33.9%; inhibition at 10 µM (CaMK2g; [1]): 0%; inhibition at 10 µM (CaMK2g; read-out: inhibition (10 μM)): -6.4%; inhibition at 10 µM (PRP4; [1]): 0%; inhibition at 10 µM (PRP4; read-out: inhibition (10 μM)): 10.2%; inhibition at 10 µM (SMG1; [1]): 50 to 75%; inhibition at 10 µM (SMG1; read-out: inhibition (10 μM)): 55.8%; % inhibition (MST1, MST2; 10 μM, range class): >90%; inhibition (10 μM) (MST1, MST2): 98.4%; inhibition at 10 µM (RSKL1; [1]): 0%; inhibition at 10 µM (RSKL1; read-out: inhibition (10 μM)): -22.1%; inhibition at 10 µM (PKR; [1]): 0%; inhibition at 10 µM (PKR; read-out: inhibition (10 μM)): 3.8%; % inhibition (MARK1, MARK2; 10 μM, range class): 0.0%; inhibition (10 μM) (MARK1, MARK2): 9.3%; inhibition at 10 µM (RSK2 domain2; [1]): 0%; inhibition at 10 µM (RSK2 domain2; read-out: inhibition (10 μM)): 9.9%; % inhibition (MARK2, MARK3; 10 μM, range class): 0.0%; inhibition (10 μM) (MARK2, MARK3): 14.9%; % inhibition (AurA, AurB, AurC; 10 μM, range class): 50-75%; inhibition (10 μM) (AurA, AurB, AurC): 53.2%; inhibition at 10 µM (GSK3B; [1]): > 90%; inhibition at 10 µM (GSK3B; read-out: inhibition (10 μM)): 90.2%
